# Like-named read-outs stand apart in the source and are kept apart here.
# Tests used:
# Type in all cases: in vivo
# [1] = system: Ipomoea hederacea; experiment: Greenhouse pre-emergence (PRE) herbicidal test on IPOHE; settings: Ipomoea hederacea, pre-emergence; for inhibition at 8 g/ha: use rate 8 gai/ha
# From the text: (§1) The culture containers used were plastic pots containing loamy sand with approximately 3.0% of humus as substrate. The seeds of the test plants were sown separately for each species.
# (§2) For the pre-emergence treatment, the active compounds, suspended or emulsified in water, were applied directly after sowing by means of finely distributing nozzles. The containers were irrigated gently to promote germination and growth and subsequently covered with transparent plastic hoods until the plants had rooted. This cover caused uniform germination of the test plants unless this was adversely affected by the active compounds.
# (§3) Depending on the species, the plants were kept at 10-25° C. and 20-35° C., respectively.
# (§4) The test period extended over 2 to 4 weeks. During this time, the plants were tended and their response to the individual treatments was evaluated.
# (§5) Evaluation was carried out using a scale from 0 to 100. 100 means no emergence of the plants, or complete destruction of at least the above-ground parts, and 0 means no damage or normal course of growth. A good herbicidal activity is given at values of at least 70, and very good herbicidal activity is given at values of at least 85.
# (§6) If not stated differently, the respective components A and B, and if appropriate, C were formulated as a 5% by weight strength emulsion concentrate and, with addition of the amount of solvent system, introduced into the spray liquor used for applying the active compound.
# (§7) As indicated application was either post emergent (POST) at the respective growth stage (GS) of the weed (BBCH code), or pre-emergent (PRE).
# (§8) Assessment was 20 days after treatment (DAT).
# [2] = system: Euphorbia heterophylla; experiment: Greenhouse post-emergence (POST) herbicidal test on EPHHL; settings: Euphorbia heterophylla, post-emergence; for inhibition at 2 g/ha: use rate 2 gai/ha; for inhibition at 4 g/ha: use rate 4 gai/ha; for inhibition at 8 g/ha: use rate 8 gai/ha
# Procedure, shortened: (§9)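 Injury was rated visually on a 0–100 scale, where 0 is normal growth and 100 is complete above-ground kill, 20 days after treatment. Test plants at 3–15 cm height received a post-emergence spray of water-dispersed active from 5% emulsion concentrates. Pots held loamy sand with ~3.0% humus, at 10-25 °C or 20-35 °C depending on species.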
# [3] = system: Echinochloa crus-galli; experiment: Greenhouse post-emergence (POST) herbicidal test on ECHCG
# Procedure, shortened: as §9
# [4] = system: Brachiaria decumbens; experiment: Greenhouse pre-emergence (PRE) herbicidal test on BRADC; settings: Urochloa decumbens, BRADC PRE, use rate 2 gai/ha
# From the text: as §1, §2, §3, §4, §5, §6, §7, §8
# [5] = system: Amaranthus retroflexus; experiment: Greenhouse pre-emergence (PRE) herbicidal test on AMARE; settings: Amaranthus retroflexus, pre-emergence
# Procedure, shortened: (§10)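 Seeds were sown per species in pots of loamy sand with about 3.0% humus, treated pre-emergence, watered and hooded until rooted. Plants grew at 10-25° C or 20-35° C depending on species. Damage was scored 0-100 (100 = no emergence or above-ground parts destroyed) at 20 DAT.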
# [6] = system: AMAPA; experiment: Greenhouse pre-emergence (PRE) herbicidal test on AMAPA; settings: pre-emergence
# [7] = system: Euphorbia heterophylla; experiment: Greenhouse pre-emergence (PRE) herbicidal test on EPHHL; settings: Euphorbia heterophylla, pre-emergence
# Procedure, shortened: as §10
# [8] = system: Lolium multiflorum; experiment: Greenhouse pre-emergence (PRE) herbicidal test on LOLMU; settings: Lolium multiflorum, pre-emergence
# Procedure, shortened: as §10
# [9] = system: Avena fatua; experiment: Greenhouse pre-emergence (PRE) herbicidal test on AVEFA; settings: use rate 2 gai/ha
# From the text: as §1, §2, §3, §4, §5, §6, §7, §8
# [10] = 480 h, POST, EPHHL, 20 DAT, read-out: solo application % activity
# [11] = Echinochloa crus-galli, post-emergence, 480 h, POST, ECHCG, use rate 2 gai/ha, 20 DAT, read-out: solo application % activity
# [12] = Echinochloa crus-galli, post-emergence, 480 h, POST, ECHCG, use rate 8 gai/ha, 20 DAT, read-out: solo application % activity
# [13] = 480 h, PRE, EPHHL, use rate 2 gai/ha, 20 DAT, read-out: solo application % activity
# [14] = 480 h, PRE, EPHHL, use rate 8 gai/ha, 20 DAT, read-out: solo application % activity
# [15] = EPHHL PRE, use rate 8 gai/ha, read-out: % activity
# [16] = 480 h, PRE, LOLMU, use rate 2 gai/ha, 20 DAT, read-out: solo application % activity
smiles,measurement,setting,value
COc1c(Cl)cc(F)c(F)c1Nc1nc(N)nc(C(C)(C)F)n1 [Compound I-3],inhibition at 4 g/ha,"[1]; 480 h, PRE, IPOHE, use rate 4 gai/ha, 20 DAT",5%
same,inhibition at 8 g/ha,"[1]; 480 h, PRE, IPOHE, 20 DAT",30%
same,inhibition at 16 g/ha,"[1]; 480 h, PRE, IPOHE, use rate 16 gai/ha, 20 DAT",40%
same,inhibition at 32 g/ha,"[1]; 480 h, PRE, IPOHE, use rate 32 gai/ha, 20 DAT",40%
same,inhibition at 8 g/ha,[1]; IPOHE PRE,35%
same,inhibition at 2 g/ha,"[2]; 480 h, EPHHL POST, 20 DAT, read-out: % activity",25%
same,pest or weed control at 8 g/ha,"[2]; 480 h, POST, 8 gai/ha, 20 DAT",60%
same,inhibition at 2 g/ha,[2]; [10],20%
same,inhibition at 4 g/ha,"[2]; 480 h, POST, EPHHL, 20 DAT",65%
same,inhibition at 8 g/ha,[2]; [10],50%
same,inhibition at 8 g/ha,"[2]; EPHHL POST, read-out: % activity",60%
same,inhibition at 4 g/ha,"[2]; POST, EPHHL",60%
same,% activity,"[3]; ECHCG POST, use rate 2 gai/ha",25%
same,% activity,"[3]; ECHCG POST, use rate 8 gai/ha",40%
same,inhibition at 2 g/ha,"[3]; Echinochloa crus-galli, post-emergence, 432 h, POST, ECHCG, 2 gai/ha, 18 DAT, read-out: % activity solo application",0%
same,pest or weed control at 2 g/ha,"[3]; Echinochloa crus-galli, post-emergence, 432 h, POST, ECHCG, I-3 solo 2 gai/ha, 18 DAT",0%
same,inhibition at 2 g/ha,"[3]; Echinochloa crus-galli, post-emergence, 480 h, ECHCG POST, 20 DAT, use rate 2 gai/ha, read-out: % activity",10%
same,inhibition at 8 g/ha,"[3]; Echinochloa crus-galli, post-emergence, 480 h, ECHCG POST, 20 DAT, use rate 8 gai/ha, read-out: % activity",55%
same,pest or weed control at 2 g/ha,"[3]; Echinochloa crus-galli, post-emergence, 480 h, POST, 2 gai/ha, 20 DAT",10%
same,inhibition at 2 g/ha,[3]; [11],0%
same,inhibition at 4 g/ha,"[3]; Echinochloa crus-galli, post-emergence, 480 h, POST, ECHCG, use rate 4 gai/ha, 20 DAT",35%
same,inhibition at 8 g/ha,"[3]; Echinochloa crus-galli, post-emergence, 480 h, POST, ECHCG, use rate 8 gai/ha, 20 DAT, read-out: % activity",50%
same,inhibition at 8 g/ha,[3]; [12],10%
same,inhibition at 8 g/ha,"[3]; Echinochloa crus-galli, post-emergence, ECHCG POST, use rate 8 gai/ha, read-out: % activity",35%
same,inhibition at 2 g/ha,"[3]; Echinochloa crus-galli, post-emergence, POST, ECHCG, use rate 2 gai/ha, read-out: % activity",30%
same,inhibition at 2 g/ha,[4],30%
same,pest or weed control at 2 g/ha,"[5]; 480 h, PRE, 2 gai/ha, 20 DAT",90%
same,inhibition at 2 g/ha,"[5]; 480 h, PRE, AMARE, 2 gai/ha, 20 DAT, read-out: % activity solo application",60%
same,inhibition at 2 g/ha,"[5]; 480 h, PRE, AMARE, use rate 2 gai/ha, 20 DAT, read-out: solo application % activity",60%
same,inhibition at 1 g/ha,"[6]; 240 h, use rate 1 gai/ha, 10 DAT",40%
same,inhibition at 2 g/ha,"[6]; 240 h, use rate 2 gai/ha, 10 DAT",60%
same,inhibition at 8 g/ha,"[6]; 480 h, use rate 8 gai/ha, 20 DAT",60%
same,pest or weed control at 2 g/ha,"[7]; 432 h, PRE, EPHHL, I-3 solo 2 gai/ha, 18 DAT",15%
same,pest or weed control at 8 g/ha,"[7]; 432 h, PRE, EPHHL, I-3 solo 8 gai/ha, 18 DAT",75%
same,inhibition at 2 g/ha,"[7]; 480 h, EPHHL PRE, 20 DAT, use rate 2 gai/ha, read-out: % activity",0%
same,inhibition at 8 g/ha,"[7]; 480 h, EPHHL PRE, 20 DAT, use rate 8 gai/ha, read-out: % activity",50%
same,pest or weed control at 8 g/ha,"[7]; 480 h, PRE, 8 gai/ha, 20 DAT",50%
same,inhibition at 2 g/ha,"[7]; 480 h, PRE, EPHHL, 2 gai/ha, 20 DAT, read-out: % activity solo application",5%
same,inhibition at 8 g/ha,"[7]; 480 h, PRE, EPHHL, 8 gai/ha, 20 DAT, read-out: % activity solo application",50%
same,pest or weed control at 8 g/ha,"[7]; 480 h, PRE, EPHHL, I-3 solo 8 gai/ha, 20 DAT",20%
same,inhibition at 2 g/ha,[7]; [13],10%
same,inhibition at 8 g/ha,[7]; [14],50%
same,inhibition at 8 g/ha,[7]; [15],55%
same,inhibition at 2 g/ha,"[7]; PRE, EPPHL, use rate 2 gai/ha, read-out: % activity",45%
same,inhibition at 8 g/ha,"[7]; PRE, EPPHL, use rate 8 gai/ha, read-out: % activity",80%
same,inhibition at 2 g/ha,"[8]; 432 h, PRE, LOLMU, 2 gai/ha, 18 DAT, read-out: % activity solo application",10%
same,inhibition at 8 g/ha,"[8]; 432 h, PRE, LOLMU, 8 gai/ha, 18 DAT, read-out: % activity solo application",70%
same,pest or weed control at 2 g/ha,"[8]; 432 h, PRE, LOLMU, I-3 solo 2 gai/ha, 18 DAT, read-out: % activity",10%
same,pest or weed control at 8 g/ha,"[8]; 432 h, PRE, LOLMU, I-3 solo 8 gai/ha, 18 DAT",70%
same,inhibition at 8 g/ha,"[8]; 480 h, LOLMU PRE, 20 DAT, use rate 8 gai/ha, read-out: % activity",90%
same,pest or weed control at 8 g/ha,"[8]; 480 h, PRE, 8 gai/ha, 20 DAT",90%
same,inhibition at 8 g/ha,"[8]; 480 h, PRE, LOLMU, 8 gai/ha, 20 DAT, read-out: % activity solo application",95%
same,pest or weed control at 2 g/ha,"[8]; 480 h, PRE, LOLMU, I-3 solo 2 gai/ha, 20 DAT, read-out: % activity",25%
same,inhibition at 2 g/ha,[8]; [16],50%
same,inhibition at 4 g/ha,"[8]; 480 h, PRE, LOLMU, use rate 4 gai/ha, 20 DAT",80%
same,inhibition at 2 g/ha,"[8]; 480 h, PRE, use rate 2 gai/ha, 20 DAT, read-out: % activity",20%
same,inhibition at 2 g/ha,"[8]; PRE, LOLMU, use rate 2 gai/ha, read-out: % activity",40%
same,inhibition at 2 g/ha,[9],20%
"COc1c(Cl)c(F)c(F)c(F)c1Nc1nc(N)nc(C(C)(C)F)n1 [Compound I-4, N4-(5-Chloro-2,3,4-trifluoro-6-methoxy-phenyl)-6-(1-fluoro-1-methyl-ethyl)-1,3,5-triazine-2,4-diamine]",inhibition at 2 g/ha,[2]; [10],30%
same,inhibition at 8 g/ha,[2]; [10],35%
same,inhibition at 2 g/ha,[3]; [11],0%
same,inhibition at 8 g/ha,[3]; [12],5%
same,inhibition at 2 g/ha,"[5]; AMARE PRE, use rate 2 gai/ha, read-out: % activity",70%
same,pest or weed control at 8 g/ha,"[7]; 480 h, PRE, EPHHL, I-4 solo 8 gai/ha, 20 DAT",5%
same,inhibition at 2 g/ha,[7]; [13],0%
same,inhibition at 8 g/ha,[7]; [14],10%
same,inhibition at 8 g/ha,[7]; [15],40%
same,pest or weed control at 2 g/ha,"[8]; 480 h, PRE, LOLMU, I-4 solo 2 gai/ha, 20 DAT, read-out: % activity",10%
same,pest or weed control at 8 g/ha,"[8]; 480 h, PRE, LOLMU, I-4 solo 8 gai/ha, 20 DAT",65%
same,inhibition at 2 g/ha,[8]; [16],5%
same,inhibition at 8 g/ha,"[8]; 480 h, PRE, LOLMU, use rate 8 gai/ha, 20 DAT, read-out: solo application % activity",60%
same,inhibition at 8 g/ha,"[8]; LOLMU PRE, use rate 8 gai/ha, read-out: % activity",35%
